Test results as given in patent US10583106B2, “Method of treating cancer by oral administration of acetate composition comprising magnesium acetate, calcium acetate or ethylacetate” (priority 2015, dated 2020).
Read-outs that look alike come from different tables or passages of the source.

Legend:
[1] = system: X-inactivation; conditions: cited from earlier work
[2] = system: FMR1 mRNA; conditions: Baicsi, 2008; cited from earlier work
[3] = system: MeCP2^tm1.1Jae mice; parameters: key to Lifespan / Normal breathing / Motor function / Motility: ↑: increased; ↓: decreased; conditions: cited from earlier work
[4] = system: histone acetylation; conditions: brief description of the histone acetylation mechanism; cited from earlier work
[5] = system: MeCP2^1lox mice; parameters: key: ↑: increased; ↓: decreased; conditions: Schaevitz, 2012, cited from earlier work
[6] = system: Non-Hodgkin's Lymphoma; conditions: continued regime of DCA and thiamine; cited from earlier work
[7] = Flavin, 2010; cited from earlier work
[8] = radioactive DCA; exhaled in breath; cited from earlier work
[9] = system: MeCP2^tm1.1Bird mice; parameters: key: ↑: increased; ↓: decreased; conditions: cited from earlier work
[10] = system: Human females; parameters: key to Apneias: ↑: increased; ↓: decreased; conditions: cited from earlier work; for Apneias: Krajnc, 2013, Khwaja, 2014
[11] = system: Fragile X syndrome patients; conditions: 12 weeks; from ˜50%; cited from earlier work
[12] = system: polyglutamine induced cell death; conditions: McCampbell, 2001; cited from earlier work
[13] = system: Silenced MeCP2 in mouse neurons; parameters: key: ↑: increased; ↓: decreased; conditions: Ma, 2015; cited from earlier work
[14] = system: 16 month old mice; conditions: Peleg, 2010; cited from earlier work
[15] = system: R6/2 HD mice; conditions: cited from earlier work
[16] = system: animals; conditions: cited from earlier work
[17] = system: Rats; conditions: 30 days, diet with 28.5% of total calories supplied by Triacetin; cited from earlier work
[18] = system: adult offspring of Low LG maternal care; conditions: Weaver et al., 2004; cited from earlier work
[19] = system: MeCP2 KO mice; parameters: key: ↑: increased; ↓: decreased; conditions: Park, 2014; cited from earlier work
[20] = system: MeCP2-mutated human fibroblasts; conditions: Gold, 2015; cited from earlier work
[21] = system: MeCP2-mutated human fibroblasts; assay: Tubastatin A in MeCP2-mutated human fibroblasts; conditions: 1 μM versus 5 mM butyrate
[22] = system: HDAC; conditions: Ookubo, 2013; cited from earlier work
[23] = system: ectopically methylated DNA; conditions: cells harvested 48 hours after treatment; cited from earlier work
[24] = system: histones; conditions: radiolabeled acetate; cited from earlier work
[25] = system: cultured colon cells; conditions: Mariadason, 2000; cited from earlier work
[26] = system: MeCP2^tm1HzO mice; parameters: key: ↑: increased; ↓: decreased; conditions: Ben-Zeev, 2011, cited from earlier work
[27] = system: MecP2-null mice; parameters: key to Lifespan / Normal breathing / Motor function: ↑: increased; ↓: decreased; conditions: 2009, cited from earlier work

Nc1ncn([C@H]2C[C@H](O)[C@@H](CO)O2)c(=O)n1 [5-azadC, 5-aza-2′-deoxycytidine]
number of cells that lost their X-inactivation ([1]; Xist on): 19 × as many compared to controls | number of cells that lost their X-inactivation ([1]; combined with Xist deletion): 30 × as many compared to controls | FMR1 mRNA relative to normal control cells [2]: approximately 20%

O=c1cc(-c2ccccc2)oc2c(O)c(O)ccc12 [7,8-dihydroxyflavone]
Lifespan ([3]; Johnson, 2011): ↑ Lifespan, ↑ Normal breathing, | Motor function ([3]; Johnson, 2011): ↑ Motor function | Normal breathing ([3]; Johnson, 2011): ↑ Lifespan, ↑ Normal breathing,

CC(=O)O[C@H](CC(=O)[O-])C[N+](C)(C)C [Acetyl-L-Carnitine]
Histone acetylation (mechanism) [4]: Increases Acetyl-CoA | Motor function ([5]; Nag, 2007): ↑ Motor function | Forepaw grip strength [5]: ↑ Forepaw grip strength,

O=C(O)C(Cl)Cl [DCA, dichloroacetate]
monthly blood tests [6]: normal | toxicity of prolonged exposure [7]: peripheral neuropathy | fraction metabolized to carbon dioxide [8]: up to 50%

CNCCCN1c2ccccc2CCc2ccccc21 [Desipramine]
TH expressing neurons ([9]; Roux, 2007, Szczesna, 2014): ↑ | Apneas ([9]; Roux, 2007): ↓

CNC1(c2ccccc2Cl)CCCCC1=O (stereo not shown) [Ketamine]
PPI of the ASR (cognitive function) ([3]; Kron, 2012): Improved PPI of the ASR (cognitive | Histone acetylation (mechanism) [4]: HDACi activity in the Nucleus

C[N+](C)(C)C[C@H](O)CC(=O)[O-] [L-Carnitine]
Histone acetylation (mechanism) [4]: Increases Acetyl-CoA | Hand Apraxia Scale assessment ([10]; Ellaway, 1999): no effect on Hand Apraxia Scale | Patient Well Being Index ([10]; Ellaway, 1999): Improved Patient Well Being Index,

N[C@@H](Cc1ccc(O)c(O)c1)C(=O)O [Levodopa]
Histone acetylation (mechanism) [4]: Histone acetylation, | TH expressing neurons ([9]; Roux, 2007, Szczesna, 2014): ↑ TH expressing neurons | Hind-limb clasping ([9]; Szczesna, 2014): ↓ | Lifespan ([9]; Szczesna, 2014): ↑ | Motor function ([9]; Szczesna, 2014): ↑ | Tremor ([9]; Szczesna, 2014): ↓

CC[C@H](C)C(=O)O[C@H]1C[C@@H](C)C=C2C=C[C@H](C)[C@H](CC[C@@H]3C[C@@H](O)CC(=O)O3)[C@H]21 [Lovastatin]
Aberrant Behavior Checklist score [11]: ~30%

O=C(O)CCCc1ccccc1 [PBA, phenylbutyric acid]
ability to reduce cell death [12]: reduction in cell death | expression of AR [the mutant protein] [12]: slightly increased

CCCC(C)C1(CC)C(=O)NC(=O)NC1=O (stereo not shown) [Pentobarbatol]
Synaptic transmission (calcium spikes) [13]: ↑Synaptic transmission (calcium | dendrite growth [13]: ↑ dendrite growth,

O=C(CCCCCCC(=O)Nc1ccccc1)NO [SAHA, Vorinostat]
ability to reduce cell death [12]: comparable to TSA | expression of AR [the mutant protein] [12]: slightly increased | memory [14]: improves | Motor function ([15]; added to drinking water): marked improvement | blood-brain barrier crossing ([15]; mouse, in vivo): crosses the blood-brain barrier | histone acetylation in the brain ([15]; mouse, in vivo): increases

O=C1CCc2c(ccc3ccccc23)O1 [Splitomycin]
FMR1 mRNA relative to normal control cells [2]: approximately 20%

CC1(C)O[C@@H]2[C@@H](CO[C@@]3(COS(N)(=O)=O)OC(C)(C)O[C@@H]23)O1 [Topiramate]
Histone acetylation (mechanism) [4]: HDACi | Apneias [10]: ↓ Apneias

CC(=O)OCC(COC(C)=O)OC(C)=O [Triacetin, glycerin triacetate]
metabolism ([16]; CIREP, 2003): quickly metabolized into glycerol and acetic acid | toxicity in acute oral or dermal exposures ([16]; CIREP, 2003): not toxic | tolerated triacetin as a percentage of total diet ([16]; replacing conventional carbohydrates, Shapira, 1968): up to 20% | signs of toxicity [17]: No overt signs of toxicity

CC(/C=C/C(=O)NO)=C\[C@@H](C)C(=O)c1ccc(N(C)C)cc1 [Trichostatin A]
X-inactivation of the cells ([1]; even if Xist was turned off): no change | ability to reduce cell death [12]: reduce cell death | expression of AR [the mutant protein] [12]: slightly increased | acetylation [18]: increased | glucocorticoid receptor gene activation [18]: to levels indistinguishable from adult offspring of High LG maternal care | methylation [18]: reduced | stress response [18]: reduced

CCCCCCC(=O)OCC(COC(=O)CCCCCC)OC(=O)CCCCCC [Triheptanoin]
Histone acetylation (mechanism) [4]: Metabolizes to Acetyl-CoA | Lifespan [19]: ↑ Lifespan, ↑ Social interaction, | Motor function [19]: ↑ Motor function | Social interaction [19]: ↑ Lifespan, ↑ Social interaction,

CN1CCc2c(c3ccccc3n2Cc2ccc(C(=O)NO)cc2)C1 [Tubastatin A]
Histone acetylation (mechanism) [4]: HDACi | concentration at which it is a specific HDACi inhibitor (as low as) [20]: 1 µM | mictotubules depolymerization [20]: Protects mictotubules from | HDACi activity relative to butyrate [21]: 5000 times

CCCC(CCC)C(=O)O [Valproic acid]
Motility ([3]; Guo, 2014): ↑ Motility, | gene expression in brain ([3]; Guo, 2014): Normalized gene expression in brain | neurological symptoms ([3]; Guo, 2014): Improved neurological symptoms, | Histone acetylation (mechanism) [4]: HDACi | HDAC inhibitor activity [22]: HDAC inhibitors | demethylation of ectopically methylated DNA [23]: stimulates active demethylation

CC(=O)O [acetate]
time for histones to become significantly acetylated [24]: ≤ 15 min

NC(=O)N1c2ccccc2C=Cc2ccccc21 [carbamazepine]
HDAC inhibitor activity [22]: HDAC inhibitors

CN(C)CCCN1c2ccccc2CCc2ccc(Cl)cc21 [clomipramine]
HDAC inhibitor activity [22]: HDAC inhibitors

CNCC[C@H](Oc1cccc2ccccc12)c1cccs1 [duloxetine]
HDAC inhibitor activity [22]: HDAC inhibitors

Nc1nnc(-c2cccc(Cl)c2Cl)c(N)n1 [lamotrigine]
HDAC inhibitor activity [22]: HDAC inhibitors

CC[C@@H](C(N)=O)N1CCCC1=O [levetriacetam]
HDAC inhibitor activity [22]: HDAC inhibitors

[Cl-].[Li+] [lithium chloride]
HDAC inhibitor activity [22]: HDAC inhibitors

NC(=O)N1c2ccccc2CC(=O)c2ccccc21 [oxcarbazepine]
HDAC inhibitor activity [22]: HDAC inhibitors

CCCC(=O)[O-].[Na+] [sodium butyrate]
ability to reduce cell death [12]: reduction in cell death | expression of AR [the mutant protein] [12]: slightly increased | number of genes modified relative to TSA [25]: roughly 10 times

Glatiramer acetate
BDNF [26]: ↑ BDNF | BDNF ([26]; text): increase | Histone acetylation (mechanism) [4]: Contains acetate

IGF-1: Insulin-like Growth Factor 1
Histone acetylation (mechanism) [4]: Increases H3, H4 Histone | Apneias [10]: ↓ Apneias | 9 separate measures of RTT symptoms in mice ([27]; MeCP2 mutant mice, Tropea): partially rescued | Lifespan ([27]; Trpoea): ↑ Lifespan, ↑ Normal breathing, | Motor function ([27]; Trpoea): ↑ Motor function | Normal breathing ([27]; Trpoea): ↑ Lifespan, ↑ Normal breathing,

B1: Exogenous BDNF: Brain Derived Neurotrophic Factor protein, given exogenously (protein, UniProt P23560 129-247, looked up)
Neurotrophic factor BDNF: HSDPARRGELSVCDSISEWVTAADKKTAVDMSGGTVTVLEKVPVSKGQLKQYFYETKCNPMGYTKEGCRGIDKRHWNSQCRTTQSYVRALTMDSKKRIGWRFIRIDTSCVCTLTIKRGR
modifications: Neurotrophic factor BDNF
synaptic function in brainstem slices ([3]; Kline, 2010, listed as exogenous BDNF): normalize
